These results are taken from patent publication US20240317721A1, “PYRAZOLYL DERIVATIVES AS INHIBITORS OF THE KRAS MUTANT PROTEIN” (NOVARTIS AG, priority 2021, published 2024).

Some results are limits rather than exact numbers.

The target in this assay is KRasG12C (M1-K169, biotinylated on the N-terminus) (Homo sapiens (Human), UniProt P01116, G12C). Description: Covalent competition assay: scintillation proximity assay (SPA) quantifying covalent modification of KRASG12C. Format: binding. The note with it: competition with radiolabeled covalent probe (Compound B/Compound A), 2 hours incubation, 10 nM KRasG12C. The procedure, abridged: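 Test compounds compete with a radiolabeled covalent probe for modification of N-terminally biotinylated KRasG12C(M1-K169):GDP, final 10 nM protein, 25 nM radio-ligand, 475 nM unlabelled ligand, 2 h with agitation in 20 mM Tris-HCl pH 7.5, 150 mM NaCl, 0.1 mM MgCl2, 0.01% Tween-20.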
Regarding `C=CC(=O)N1CC2(CC(n3nc(N4CC[C@@H](CN5CCC[C@H]5C(=O)N(C)C)CC4(C)C)c(-c4c(Cl)c(Cl)cc5[nH]ncc45)c3C)C2)C1` (single isomer, unassigned) [Example 313a], the IC50 came to 0.41 µM. Next, `C=CC(=O)N1CC2(CC(n3nc(N4CC[C@@H](CN5CCC[C@H]5C(=O)N(C)C)CC4(C)C)c(-c4c(Cl)c(Cl)cc5[nH]ncc45)c3C)C2)C1` (single isomer, unassigned) [Example 313b]: 0.006 µM; `C=CC(=O)N1CC2(CC(n3nc(N4CC[C@@H](CN5CC6CCC(C5)O6)CC4(C)C)c(-c4c(Cl)c(Cl)cc5[nH]ncc45)c3C)C2)C1` (single isomer, unassigned) [Example 314a]: 2.1 µM. The figure for `C=CC(=O)N1CC2(CC(n3nc(N4CC[C@@H](CN5CC6CCC(C5)O6)CC4(C)C)c(-c4c(Cl)c(Cl)cc5[nH]ncc45)c3C)C2)C1` (single isomer, unassigned) [Example 314b] is 0.052 µM; for `C=CC(=O)N1CC2(CC(n3nc(N4CC[C@@H](CN5CCCN(C(C)=O)CC5)CC4(C)C)c(-c4c(Cl)c(Cl)cc5[nH]ncc45)c3C)C2)C1` (single isomer, unassigned) [Example 315a] it is 2 µM; for `C=CC(=O)N1CC2(CC(n3nc(N4CC[C@@H](CN5CCCN(C(C)=O)CC5)CC4(C)C)c(-c4c(Cl)c(Cl)cc5[nH]ncc45)c3C)C2)C1` (single isomer, unassigned) [Example 315b] it is 0.007 µM. Take `C=CC(=O)N1CC2(CC(n3nc(N4CC[C@@H](CN5CC6(CCOC6)C5)CC4(C)C)c(-c4c(Cl)c(Cl)cc5[nH]ncc45)c3C)C2)C1` (single isomer, unassigned) [Example 316a]: the IC50 worked out at 1.2 µM.

Take `C=CC(=O)N1CC2(CC(n3nc(N4CC[C@@H](CN5CC6(CCOC6)C5)CC4(C)C)c(-c4c(Cl)c(Cl)cc5[nH]ncc45)c3C)C2)C1` (single isomer, unassigned) [Example 316b]: the concentration for half-maximal inhibition (IC50) is 0.009 µM. Turning to `C=CC(=O)N1CC2(CC(n3nc(N4CC[C@@H](CN5CCC6(C5)CN(C(C)=O)C6)CC4(C)C)c(-c4c(Cl)c(Cl)cc5[nH]ncc45)c3C)C2)C1` (single isomer, unassigned) [Example 317a], the IC50 was 0.888 µM. The figure for `C=CC(=O)N1CC2(CC(n3nc(N4CC[C@@H](CN5CCC6(C5)CN(C(C)=O)C6)CC4(C)C)c(-c4c(Cl)c(Cl)cc5[nH]ncc45)c3C)C2)C1` (single isomer, unassigned) [Example 317b] is 0.007 µM. Next, `C=CC(=O)N1CC2(CC(n3nc(N4CC[C@@H](CN5C6CCC5CN(C(C)=O)C6)CC4(C)C)c(-c4c(Cl)c(Cl)cc5[nH]ncc45)c3C)C2)C1` (single isomer, unassigned) [Example 318a]: 4 µM. In the case of `C=CC(=O)N1CC2(CC(n3nc(N4CC[C@@H](CN5C6CCC5CN(C(C)=O)C6)CC4(C)C)c(-c4c(Cl)c(Cl)cc5[nH]ncc45)c3C)C2)C1` (single isomer, unassigned) [Example 318b], the IC50 turned out to be 0.007 µM. `C=CC(=O)N1CC2(CC(n3nc(N4CC[C@@H](CN5CCN(C(C)=O)CC5)CC4(C)C)c(-c4c(Cl)c(Cl)cc5[nH]ncc45)c3C)C2)C1` (single isomer, unassigned) [Example 319a]: the IC50 was 2.7 µM. For `C=CC(=O)N1CC2(CC(n3nc(N4CC[C@@H](CN5CCN(C(C)=O)CC5)CC4(C)C)c(-c4c(Cl)c(Cl)cc5[nH]ncc45)c3C)C2)C1` (single isomer, unassigned) [Example 319b], the IC50 turned out to be 0.009 µM.

For the compound `C=CC(=O)N1CC2(CC(n3nc(N4CC[C@@H](CN5CCN(C6COC6)C[C@@H]5COC)CC4(C)C)c(-c4c(Cl)c(Cl)cc5[nH]ncc45)c3C)C2)C1` (single isomer, unassigned) [Example 320a], the 50% inhibitory concentration (IC50) amounted to 3.3 µM. The figure for `C=CC(=O)N1CC2(CC(n3nc(N4CC[C@@H](CN5CCN(C6COC6)C[C@@H]5COC)CC4(C)C)c(-c4c(Cl)c(Cl)cc5[nH]ncc45)c3C)C2)C1` (single isomer, unassigned) [Example 320b] is under 0.005 µM; for `C=CC(=O)N1CC2(CC(n3nc(N4C[C@H]5C[C@@H]4CN5C(C)=O)c(-c4c(Cl)c(C)cc5[nH]ncc45)c3C)C2)C1` [Example 5, 1-(6-(3-((1R,4R)-5-acetyl-2,5-diazabicyclo[2.2.1]heptan-2-yl)-4-(5-chloro-6-methyl-1H-indazol-4-yl)-5-methyl-1H-pyrazol-1-yl)-2-azaspiro[3.3]heptan-2-yl)prop-2-en-1-one] it is 2.2 µM; for `C=CC(=O)N1CC2(CC(n3nc(N4C[C@@H]5C[C@H]4CN5C(C)=O)c(-c4c(Cl)c(C)cc5[nH]ncc45)c3C)C2)C1` [Example 6, 1-(6-(3-((1S,4S)-5-acetyl-2,5-diazabicyclo[2.2.1]heptan-2-yl)-4-(5-chloro-6-methyl-1H-indazol-4-yl)-5-methyl-1H-pyrazol-1-yl)-2-azaspiro[3.3]heptan-2-yl)prop-2-en-1-one] it is 1 µM. Next, `C=CC(=O)N1CC2(CC(n3nc(N4Cc5cnn(C)c5C4)c(-c4c(Cl)c(C)cc5[nH]ncc45)c3C)C2)C1` [Example 12, 1-(6-(4-(5-chloro-6-methyl-1H-indazol-4-yl)-5-methyl-3-(1-methyl-4,6-dihydropyrrolo[3,4-c]pyrazol-5(1H)-yl)-1H-pyrazol-1-yl)-2-azaspiro[3.3]heptan-2-yl)prop-2-en-1-one]: 1.4 µM; `C=CC(=O)N1CC2(CC(n3nc(N4CCC5C(=O)N(C)CC5C4)c(-c4c(Cl)c(C)cc5[nH]ncc45)c3C)C2)C1` (stereo not drawn) [Example 16, (3aS*,7aS*)-5-(1-(2-acryloyl-2-azaspiro[3.3]heptan-6-yl)-4-(5-chloro-6-methyl-1H-indazol-4-yl)-5-methyl-1H-pyrazol-3-yl)-2-methyloctahydro-1H-pyrrolo[3,4-c]pyridin-1-one]: 1 µM; `C=CC(=O)N1CC2(CC(n3nc(N4CCC5C(=O)N(C)CC5C4)c(-c4c(Cl)c(C)cc5[nH]ncc45)c3C)C2)C1` (stereo not drawn) [Example 17, (3aS*,7aS*)-5-(1-(2-acryloyl-2-azaspiro[3.3]heptan-6-yl)-4-(5-chloro-6-methyl-1H-indazol-4-yl)-5-methyl-1H-pyrazol-3-yl)-2-methyloctahydro-1H-pyrrolo[3,4-c]pyridin-1-one]: 0.829 µM. The figure for `C=CC(=O)N1CC2(CC(n3nc(N4CCC(=O)CC45CCC5)c(-c4c(Cl)c(C)cc5[nH]ncc45)c3C)C2)C1` [Example 46, 5-(1-(2-acryloyl-2-azaspiro[3.3]heptan-6-yl)-4-(5-chloro-6-methyl-1H-indazol-4-yl)-5-methyl-1H-pyrazol-3-yl)-5-azaspiro[3.5]nonan-8-one] is 0.138 µM; for `C=CC(=O)N1CC2(CC(n3nc(N4CCC(=O)CC45CCC5)c(-c4c(Cl)c(C)cc5[nH]ncc45)c3C)C2)C1` [Example 47, 5-(1-(2-acryloyl-2-azaspiro[3.3]heptan-6-yl)-4-(5-chloro-6-methyl-1H-indazol-4-yl)-5-methyl-1H-pyrazol-3-yl)-5-azaspiro[3.5]nonan-8-one] it is over 5 µM. In the case of `C=CC(=O)N1CC2(CC(n3nc(N4CCCC45CCOCC5)c(-c4c(Cl)c(C)cc5[nH]ncc45)c3C)C2)C1` [Example 60, 1-(6-(4-(5-chloro-6-methyl-1H-indazol-4-yl)-5-methyl-3-(8-oxa-1-azaspiro[4.5]decan-1-yl)-1H-pyrazol-1-yl)-2-azaspiro[3.3]heptan-2-yl)prop-2-en-1-one], the IC50 turned out to be 4.9 µM. Next, `C=CC(=O)N1CC2(CC(n3nc(N4[C@H]5CC[C@@H]4CN(C)CC5)c(-c4c(Cl)c(C)cc5[nH]ncc45)c3C)C2)C1` [Example 64, 1-(6-(4-(5-chloro-6-methyl-1H-indazol-4-yl)-5-methyl-3-((1R,6S)-3-methyl-3,9-diazabicyclo[4.2.1]nonan-9-yl)-1H-pyrazol-1-yl)-2-azaspiro[3.3]heptan-2-yl)prop-2-en-1-one]: 0.519 µM. The figure for `C=CC(=O)N1CC2(CC(n3nc(N4CCC(N5C6CCC5COC6)CC4(C)C)c(-c4c(Cl)c(C)cc5[nH]ncc45)c3C)C2)C1` [Example 74a, 1-(6-(3-(4-((1R,5S)-3-oxa-8-azabicyclo[3.2.1]octan-8-yl)-2,2-dimethylpiperidin-1-yl)-4-(5-chloro-6-methyl-1H-indazol-4-yl)-5-methyl-1H-pyrazol-1-yl)-2-azaspiro[3.3]heptan-2-yl)prop-2-en-1-one] is over 5 µM; for `C=CC(=O)N1CC2(CC(n3nc(N4CCC(N5C6CCC5COC6)CC4(C)C)c(-c4c(Cl)c(C)cc5[nH]ncc45)c3C)C2)C1` [Example 75a, 1-(6-(3-(4-((1R,5S)-3-oxa-8-azabicyclo[3.2.1]octan-8-yl)-2,2-dimethylpiperidin-1-yl)-4-(5-chloro-6-methyl-1H-indazol-4-yl)-5-methyl-1H-pyrazol-1-yl)-2-azaspiro[3.3]heptan-2-yl)prop-2-en-1-one] it is over 5 µM; for `C=CC(=O)N1CC2(CC(n3nc(N4CCN(C(C)=O)CC4(C)C)c(-c4cc(O)cc5ccccc45)c3C)C2)C1` [Example 77, 1-(6-(3-(4-acetyl-2,2-dimethylpiperazin-1-yl)-4-(3-hydroxynaphthalen-1-yl)-5-methyl-1H-pyrazol-1-yl)-2-azaspiro[3.3]heptan-2-yl)prop-2-en-1-one] it is 1.2 µM. Take `C=CC(=O)N1CC2(CC(n3nc(N4CCC(C(=O)N(C)C)CC4(C)C)c(-c4c(Cl)c(C)cc5[nH]ncc45)c3C)C2)C1` (stereo not drawn) [Example 98a, 1-(1-(2-acryloyl-2-azaspiro[3.3]heptan-6-yl)-4-(5-chloro-6-methyl-1H-indazol-4-yl)-5-methyl-1H-pyrazol-3-yl)-N,N,2,2-tetramethylpiperidine-4-carboxamide]: the IC50 was over 5 µM. The figure for `C=CC(=O)N1CC2(CC(n3nc(N4CCC(C(=O)N(C)C)CC4(C)C)c(-c4c(Cl)c(C)cc5[nH]ncc45)c3C)C2)C1` (stereo not drawn) [Example 99b, 1-(1-(2-acryloyl-2-azaspiro[3.3]heptan-6-yl)-4-(5-chloro-6-methyl-1H-indazol-4-yl)-5-methyl-1H-pyrazol-3-yl)-N,N,2,2-tetramethylpiperidine-4-carboxamide] is over 5 µM.
